{"source": "patent US20080249034A1", "about": "“Use of Macrolides for Treating Intestinal Inflammation” (ZAMBON S.P.A., priority 2005, published 2008)", "test_system": "DNBS-induced colitis", "assay": "DNBS-induced colitis in rats, macroscopic damage score", "format": "in vivo, rat", "conditions": "Sprague-Dawley rats, intrarectal DNBS on day 2, DNBS group score 10.7±0.4", "protocol": "Albino male Sprague-Dawley rats, 200-250 g body weight, were treated with intrarectal DNBS (2,4-dinitrobenzensufonic acid, 30 mg in 0.25 ml of 50% ethanol) under a light anaesthesia with diethyl ether. In control experiments, the animals received 0.25 ml of saline (NaCl 0.9%). Animals were subjected to subsequent experimental procedures 6 days after induction of colitis with DNBS (Blandizzi et al., Altered prejunctional modulation of intestinal cholinergic and noradrenergic pathways by alpha-2-adrenoceptors in the presence of experimental colitis. Br J Pharmacol 139, 309-320, 2003). […]\nAt the end of treatments, animals were sacrificed and the severity of colonic inflammation was macroscopically evaluated in accordance with the criteria previously reported by Wallace and Keenan (Wallace J L and Keenan C M, An orally active inhibitor of leukotriene synthesis accelerates healing in a rat model of colitis. Am J Physiol, 258, G527-G534, 1990) with minor modifications (Blandizzi, et al., 2003). Briefly, the macroscopic evaluation is based on the following criteria: presence of adhesions between the colon and other intra-abdominal organs; consistency of colonic faecal material (as an indirect marker of diarrhea); thickening of the colonic wall; presence and extension of hyperemia and macroscopic mucosal damage (assessed with the aid of a ruler) (FIG. 2). […]", "data": [{"molecule": "CC[C@H]1OC(=O)[C@H](C)[C@@H](O)[C@H](C)[C@@H](O[C@@H]2O[C@H](C)C[C@H](N(C)C(C)=O)[C@H]2O)C(C)(O)C[C@@H](C)[C@H](O)[C@H](C)[C@@H](O)[C@]1(C)O", "note": "(some centres unmarked) [macrolide]", "values": [{"measurement": "anti-inflammatory effect (change of macroscopic damage score)", "setting": "100 μmol/kg/day by intragastric gavage for 7 days", "value": "−24", "unit": "%"}, {"measurement": "anti-inflammatory effect (change of macroscopic damage score)", "setting": "300 μmol/kg/day by intragastric gavage for 7 days", "value": "−51", "unit": "%"}]}]}
